Starred links: 1 amine or outer side, 2 acyl side, 3 side chain; linkers in the order of their positions; H or OH if unused. Non-standard residues stand in square brackets, D forms with d. Residues, ends and D or L forms follow the SMILES beside them. ξ: configuration not given here. *: point of attachment. X1 = O=C(O)C[C@@H](C(=O)[*:2])N(c1ccc([N+](=O)[O-])c2nonc12)[*:1]; NBD = O=[N+]([O-])c1ccc(*)c2nonc12; Nle = CCCC[C@H](N)C(=O)O; ξDab = NCCC(N)C(=O)O; Bz = O=C(c1ccccc1)*

What is called Ki is the dissociation constant of the complex between target and ligand, obtained from inhibition or displacement. Usually IC50 stands for the concentration needed to halve the response being measured. Low readings indicate greater potency, high ones weaker potency.

Chain of C-X-C chemokine receptor type 4 (P61073 whole entry): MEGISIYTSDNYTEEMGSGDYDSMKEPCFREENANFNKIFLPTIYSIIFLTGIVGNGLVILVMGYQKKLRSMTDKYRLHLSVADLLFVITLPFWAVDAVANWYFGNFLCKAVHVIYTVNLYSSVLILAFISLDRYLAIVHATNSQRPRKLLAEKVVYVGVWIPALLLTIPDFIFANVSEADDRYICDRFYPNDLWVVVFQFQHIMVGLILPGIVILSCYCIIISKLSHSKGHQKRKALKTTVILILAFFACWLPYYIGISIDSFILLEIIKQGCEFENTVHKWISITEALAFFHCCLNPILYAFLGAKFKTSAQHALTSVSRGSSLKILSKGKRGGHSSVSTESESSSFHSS

One test deals with T1, Substance-K receptor (Homo sapiens, UniProt P21452).
T1 sequence (P21452 whole entry): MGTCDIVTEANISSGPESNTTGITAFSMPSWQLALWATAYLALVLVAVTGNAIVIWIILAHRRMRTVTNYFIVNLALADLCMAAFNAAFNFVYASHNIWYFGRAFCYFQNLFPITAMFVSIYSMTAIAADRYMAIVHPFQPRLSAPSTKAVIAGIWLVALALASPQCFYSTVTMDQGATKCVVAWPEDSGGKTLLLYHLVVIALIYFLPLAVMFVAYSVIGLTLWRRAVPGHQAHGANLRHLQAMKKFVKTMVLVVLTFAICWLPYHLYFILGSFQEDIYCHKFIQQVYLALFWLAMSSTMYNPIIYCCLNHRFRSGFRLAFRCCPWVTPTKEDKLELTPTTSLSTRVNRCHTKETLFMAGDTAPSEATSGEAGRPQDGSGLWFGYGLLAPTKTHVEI
Kind of test: Displacement of [3H]GR100679 from NK2 receptor (unknown origin) expressed in CHO/T cells. It counts as cell-based. On the technique in general: In a radioligand displacement assay an active substance lowers the binding of a labelled ligand.
As for `CCCC[C@H](NC(=O)[C@@H]1CCCN1C(=O)[C@H]1CCCN1C(=O)[C@H](Cc1ccccc1)NC(=O)[C@@H](Cc1c[nH]c2ccccc12)NC(=O)[C@H](C)NC(=O)C(CCNc1ccc([N+](=O)[O-])c2nonc12)NC(=O)c1ccccc1)C(N)=O` (some centres undefined), the Ki was 1.35 nM. That is a single-digit nanomolar value. The same measure, in the same setting: the value for `CCCC[C@H](NC(=O)[C@@H]1CCCN1C(=O)[C@H]1CCCN1C(=O)[C@H](Cc1ccccc1)NC(=O)[C@@H](Cc1c[nH]c2ccccc12)NC(=O)[C@H](C)NC(=O)[C@H](CCCNc1ccc([N+](=O)[O-])c2nonc12)NC(=O)c1ccccc1)C(N)=O` was 1.45 nM; that for `CCCC[C@H](NC(=O)[C@@H]1CCCN1C(=O)[C@H]1CCCN1C(=O)[C@H](Cc1ccccc1)NC(=O)[C@@H](Cc1c[nH]c2ccccc12)NC(=O)[C@H](C)NC(=O)[C@H](CCCCNCC(=O)Nc1ccc([N+](=O)[O-])c2nonc12)NC(=O)c1ccccc1)C(N)=O` was 1.58 nM; that for `CSCC[C@H](NC(=O)[C@H](CC(C)C)NC(=O)CNC(=O)[C@@H](NC(=O)[C@H](Cc1ccccc1)NC(=O)[C@H](CO)NC(=O)[C@H](CC(=O)O)NC(=O)[C@@H](NC(=O)[C@H](CCCCN)NC(=O)[C@H](Cc1cnc[nH]1)Nc1ccc([N+](=O)[O-])c2nonc12)[C@@H](C)O)C(C)C)C(N)=O` was 5.89 nM. Still for that read-out and setting: as for `CCCC[C@H](NC(=O)[C@H](CC(C)C)NC(=O)CNC(=O)C(CCNc1ccc([N+](=O)[O-])c2nonc12)NC(=O)[C@H](Cc1ccccc1)NC(=O)[C@H](CO)NC(=O)[C@H](CC(=O)O)NC(C)=O)C(N)=O` (some centres undefined) (Ac-DSF[ξDab](NBD)GL[Nle]-NH2), the figure is 1950 nM; as for `CCCC[C@H](NC(=O)[C@@H]1CCCN1C(=O)[C@H]1CCCN1C(=O)[C@H](Cc1ccccc1)NC(=O)[C@@H](Cc1c[nH]c2ccccc12)NC(=O)[C@H](C)NC(=O)[C@H](C)NC(=O)c1ccccc1)C(N)=O` (Bz-AA[dW]F[dP]P[Nle]-NH2), 0.155 nM. Same read-out and setting: as for `CCCC[C@H](NC(=O)[C@H](CC(C)C)NC(=O)CNC(=O)[C@@H](NC(=O)[C@H](Cc1ccccc1)NC(=O)[C@H](CO)NC(=O)[C@H](CC(=O)O)Nc1ccc([N+](=O)[O-])c2nonc12)C(C)C)C(N)=O` (H-[X1]SFVGL[Nle]-NH2), the figure is 8.32 nM.

Another test addresses C-X-C chemokine receptor type 4 (Homo sapiens, UniProt P61073). Description: Displacement of [125I]SDF1 from CXCR4 (unknown origin) expressed in CHO cells. The class given is cell-based.
In turn, `CC(=O)N[C@@H](CCCNC(=N)N)C(=O)N[C@@H](CCCNC(=N)N)C(=O)N[C@@H](Cc1cccc2ccccc12)C(=O)N[C@H]1CSSC[C@@H](C(=O)N[C@@H](CCCNC(=N)N)C(N)=O)NC(=O)[C@H](CCCNC(N)=O)NC(=O)[C@H](CCCNC(=N)N)NC(=O)[C@H](Cc2ccc(O)cc2)NC(=O)[C@@H]2CCCN2C(=O)[C@@H](CCCCN)NC(=O)[C@H](CCCNC(=N)N)NC(=O)[C@H](CCCNC(N)=O)NC(=O)[C@H](Cc2ccc(O)cc2)NC1=O` showed an IC50 of 5.2 nM.

`CC(=O)N[C@@H](CCCNC(=N)N)C(=O)N[C@@H](CCCNC(=N)N)C(=O)N[C@@H](Cc1cccc2ccccc12)C(=O)N[C@H]1CSSC[C@@H](C(=O)N[C@@H](CCCNC(=N)N)C(N)=O)NC(=O)[C@H](CCCNC(N)=O)NC(=O)[C@H](CCCNC(=N)N)NC(=O)[C@H](Cc2ccc(O)cc2)NC(=O)[C@@H]2CCCN2C(=O)[C@@H](CCC(=O)O)NC(=O)[C@H](CCCNC(=N)N)NC(=O)[C@H](CCCNC(N)=O)NC(=O)[C@H](Cc2ccc(O)cc2)NC1=O` showed an IC50 of 6.7 nM. This IC50 and that of the compound before are within 1.5-fold of each other.

These data come from ChEMBL document CHEMBL3351524, “Toward fluorescent probes for G-protein-coupled receptors (GPCRs)” (J Med Chem, 2014).
